From BindingDB's records for PubMed 8394902 (Georgetown University, 1993)
Where “and” joins values, the source holds several entries; their conditions need not be identical. Identical values can stand only once.

Molecular target: Gamma-aminobutyric acid receptor subunit alpha-1 (Rattus norvegicus, UniProt P62813)
Sequence (P62813 whole entry): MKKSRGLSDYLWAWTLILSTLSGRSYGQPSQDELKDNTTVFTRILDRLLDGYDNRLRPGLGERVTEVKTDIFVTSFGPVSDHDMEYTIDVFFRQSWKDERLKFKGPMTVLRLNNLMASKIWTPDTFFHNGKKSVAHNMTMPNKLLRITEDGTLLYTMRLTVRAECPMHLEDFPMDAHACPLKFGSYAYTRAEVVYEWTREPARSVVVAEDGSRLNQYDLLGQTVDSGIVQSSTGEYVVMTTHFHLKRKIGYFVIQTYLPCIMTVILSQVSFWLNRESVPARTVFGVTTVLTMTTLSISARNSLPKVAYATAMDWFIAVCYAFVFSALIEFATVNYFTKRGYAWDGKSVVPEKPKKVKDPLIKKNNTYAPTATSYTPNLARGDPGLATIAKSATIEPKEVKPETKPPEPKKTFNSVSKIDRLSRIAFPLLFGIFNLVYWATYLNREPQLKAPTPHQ

`Cc1nnc2n1-c1ccc(Cl)cc1C(c1ccccc1)=NC2` was tested, and the Ki was 0.021 µM and 0.065 µM.
